Three compounds from US7863281B2, “Bicyclic heterocycles, pharmaceutical compositions containing these compounds, their use and processes for the preparation thereof” (Boehringer Ingelheim Pharma GmbH & Co. KG, priority 2002, dated 2011) can be followed below.

T1 sequence (P00533 688-1210): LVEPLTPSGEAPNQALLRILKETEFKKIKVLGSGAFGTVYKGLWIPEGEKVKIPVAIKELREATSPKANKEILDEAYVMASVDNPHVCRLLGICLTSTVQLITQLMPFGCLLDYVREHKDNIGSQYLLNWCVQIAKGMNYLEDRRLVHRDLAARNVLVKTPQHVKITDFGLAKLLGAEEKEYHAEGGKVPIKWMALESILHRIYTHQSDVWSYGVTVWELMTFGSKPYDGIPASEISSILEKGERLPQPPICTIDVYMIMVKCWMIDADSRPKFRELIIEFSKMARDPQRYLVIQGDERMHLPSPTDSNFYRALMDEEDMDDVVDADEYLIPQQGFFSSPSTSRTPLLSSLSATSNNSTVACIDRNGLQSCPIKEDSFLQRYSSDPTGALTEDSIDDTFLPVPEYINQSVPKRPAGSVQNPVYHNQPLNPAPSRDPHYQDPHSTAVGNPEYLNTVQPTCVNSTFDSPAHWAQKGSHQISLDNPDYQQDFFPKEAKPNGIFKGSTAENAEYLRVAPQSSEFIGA

This experiment concerns the target T1, human EGF-receptor kinase (Homo sapiens, UniProt P00533).
T1 construct: GST; made in house; host or cells: Sf9 insect cells (Baculovirus expression system)
Nature of the experiment: Inhibition of human EGF-receptor kinase (ELISA, pEY substrate). It is filed as biochemical. The note with it: cytoplasmic tyrosine kinase domain (Met664-Ala1186) as GST fusion protein; poly(EY)/bio-pEY substrate; 30 minutes at ambient temperature. As to the method: The inhibition of human EGF-receptor kinase was determined using the cytoplasmic tyrosine kinase domain (methionine 664 to alanine 1186 based on the sequence published in Nature 309 (1984), 418). For this the protein was expressed in Sf9 insect cells as GST fusion protein using the Baculovirus expression system.
The enzyme activity was measured in the presence or absence of the test compounds in serial dilutions. The polymer pEY (4:1) obtained from SIGMA was used as the substrate. Biotinylated pEY (bio-pEY) was added as the tracer substrate. 100 μl of reaction solution contained 10 μl of the inhibitor in 50% DMSO, 20 μl of the substrate solution (200 mM HEPES pH 7.4, 50 mM magnesium acetate, 2.5 mg/ml poly(EY), 5 μg/ml bio-pEY) and 20 μl of enzyme preparation. The enzyme reaction was started by the addition of 50 μl of a 100 μM ATP solution in 10 mM of magnesium chloride. The dilution of the enzyme preparation was adjusted so that the incorporation of phosphate in the bio-pEY was linear in terms of time and quantity of enzyme. The enzyme preparation was diluted in 20 mM HEPES pH 7.4, 1 mM EDTA, 130 mM common salt, 0.05% Triton X-100, 1 mM DTT and 10% glycerol.
The enzyme assays were carried out at ambient temperature over a period of 30 minutes and ended by the addition of 50 μl of a stopping solution (250 mM EDTA in 20 mM HEPES pH 7.4). 100 μl were placed on a streptavidin-coated microtitre plate and incubated for 60 minutes at ambient temperature. Then the plate was washed with 200 μl of a wash solution (50 mM Tris, 0.05% Tween 20). After the addition of 100 μl of an HRPO-labelled anti-PY antibody (PY20H Anti-PTyr:HRP made by Transduction Laboratories, 250 ng/ml) the preparation was incubated for 60 minutes. Then the microtitre plate was washed three times with 200 μl of wash solution. The samples were then combined with 100 μl of a TMB-peroxidase solution (A:B=1:1, Kirkegaard Perry Laboratories). After 10 minutes the reaction was stopped. The extinction was measured at OD450nm with an ELISA reader. All the results were measured three times. […]
Turning to `O=C(/C=C/CN1C[C@@H]2C[C@H]1CO2)Nc1cc2c(Nc3ccc(F)c(Cl)c3)ncnc2cc1OCC1CC1` [Example 1, 4-[(3-chloro-4-fluoro-phenyl)amino]-6-{[4-((1S,4S)-2-oxa-5-aza-bicyclo[2.2.1]hept-5-yl)-1-oxo-2-buten-1-yl]amino}-7-cyclopropylmethoxy-quinazoline], the midpoint of inhibition, the IC50, lay at 1.5 nM.
For `O=C(/C=C/CN1C[C@H]2C[C@@H]1CO2)Nc1cc2c(Nc3ccc(F)c(Cl)c3)ncnc2cc1O[C@H]1CCOC1` [Example 2(2), 4-[(3-chloro-4-fluoro-phenyl)amino]-6-{[4-((1R,4R)-2-oxa-5-aza-bicyclo[2.2.1]hept-5-yl)-1-oxo-2-buten-1-yl]amino}-7-[(S)-(tetrahydrofuran-3-yl)oxy]-quinazoline] the value was 0.5 nM; for `O=C(/C=C/CN1CC2CCC(C1)O2)Nc1cc2c(Nc3ccc(F)c(Cl)c3)ncnc2cc1O[C@H]1CCOC1` [Example 2(3), 4-[(3-chloro-4-fluoro-phenyl)amino]-6-{[4-(8-oxa-3-aza-bicyclo[3.2.1]oct-3-yl)-1-oxo-2-buten-1-yl]amino}-7-[(S)-(tetrahydrofuran-3-yl)oxy]-quinazoline], 2 nM.
